Our source for the Activity, selectivity ratio and IC50 values is ChEMBL document CHEMBL4411300 (Eur J Med Chem, 2019).

The source made the active and inactive calls. No cut-off for these calls is given here.

For orientation: IC50 means the concentration needed to halve the response being measured.

Data set [1] can be described thus: Hepatotoxicity in Balb/c mouse infected with Trypanosoma cruzi MHOM/Pe/2011/Arequipa DTU 5 trypomastigotes assessed as decrease in ratio of serum ALT to GPT level at 20 mg/kg, po once daily for 5 consecutive days starting from day 75 post infection measured on day 81 post infection relative to control. The following applies: in vivo. Also noted: scale not given: the % may be the effect or the level left. It is filed as toxicity, organism-based.

Data set [2] concerns Trypanosoma cruzi. Nature of the data set: Antitrypanosomal activity against Trypanosoma cruzi MHOM/Pe/2011/Arequipa DTU 5 trypomastigotes infected in Balb/c mouse assessed as reduction in Ig-G level in serum at 20 mg/kg, po once daily for 5 consecutive days starting from day 75 post infection measured on day 81 post infection by ELISA. It is filed as functional, organism-based. (In an ELISA, binding on a coated surface is turned into a signal by an enzyme label.)

Data set [3] in a line: Selectivity index, ratio of IC50 for African green monkey Vero cells to IC50 for Trypanosoma cruzi MHOM/Pe/2011/Arequipa DTU 5 epimastigotes. It is filed as toxicity. The following applies: read-out: Ratio IC50.
In data set [4] the target is Superoxide dismutase [Cu-Zn] (Homo sapiens, UniProt P00441). Nature of the data set: Inhibition of human erythrocyte CuZn-SOD by UV-Visible spectrophotometric method.
Chain of Superoxide dismutase [Cu-Zn] (P00441 whole entry): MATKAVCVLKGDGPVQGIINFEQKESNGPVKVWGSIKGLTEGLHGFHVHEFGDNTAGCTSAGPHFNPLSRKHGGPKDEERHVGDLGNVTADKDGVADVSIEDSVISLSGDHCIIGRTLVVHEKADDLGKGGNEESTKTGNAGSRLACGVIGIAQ
For data set [5], the system named is Trypanosoma cruzi. Nature of the data set: Antitrypanosomal activity against Trypanosoma cruzi MHOM/Pe/2011/Arequipa DTU 5 epimastigotes assessed as effect on parasite glycolytic pathway by measuring decrease in acetate excretion at IC25 after 72 hrs by 1H NMR method. It is filed as functional, organism-based.
A short description of data set [6]: Inhibition of Trypanosoma cruzi MHOM/Pe/2011/Arequipa DTU 5 epimastigotes Fe-SOD by UV-Visible spectrophotometric method.
Data set [7] in a line: Selectivity index, ratio of IC50 for African green monkey Vero cells to IC50 for Trypanosoma cruzi TINF/CH/1956/Tulahuen DTU 6 amastigotes infected in African green monkey Vero cells. It is filed as toxicity. The following applies: read-out: Ratio IC50.
The nature of data set [8]: Cardiotoxicity in Balb/c mouse infected with Trypanosoma cruzi MHOM/Pe/2011/Arequipa DTU 5 trypomastigotes assessed as decrease in ratio of creatine kinase in muscle to brain at 20 mg/kg, po once daily for 5 consecutive days starting from day 75 post infection measured on day 81 post infection relative to control. Details: scale not given: the % may be the effect or the level left. It is filed as toxicity, organism-based. The following applies: in vivo.

Data set [9] concerns Trypanosoma cruzi. As to the kind of experiment: Trypanocidal activity against Trypanosoma cruzi MHOM/Pe/2011/Arequipa DTU 5 amastigotes infected in African green monkey Vero cells after 72 hrs by Giemsa-staining based microscopic assay. It is filed as functional, organism-based. The following applies: MHOM/Pe/2011/Arequipa DTU 5, Vero.
Data set [10] relates to Trypanosoma cruzi. Nature of the data set: Antitrypanosomal activity against Trypanosoma cruzi MHOM/Pe/2011/Arequipa DTU 5 trypomastigotes infected in Balb/c mouse assessed as reduction in parasitaemia level at 20 mg/kg, po once daily for 5 consecutive days starting from day 10 post infection measured on day 23 post infection by Neubauer chamber method relative to control. It is filed as functional. Also noted: scale not given: the % may be the effect or the level left.

A short description of data set [11]: Hepatotoxicity in Balb/c mouse infected with Trypanosoma cruzi MHOM/Pe/2011/Arequipa DTU 5 trypomastigotes assessed as change in alkaline phosphatase level at 20 mg/kg, po once daily for 5 consecutive days starting from day 75 post infection measured on day 127 post infection (reference value: 149 U/L). It is filed as toxicity, organism-based. The following applies: in vivo.

In data set [12] the test system is Trypanosoma cruzi. Nature of the data set: Antitrypanosomal activity against Trypanosoma cruzi MHOM/Pe/2011/Arequipa DTU 5 epimastigotes assessed as effect on parasite glycolytic pathway by measuring decrease in L-alanine excretion at IC25 after 72 hrs by 1H NMR method. It is filed as functional, organism-based.
The test system of data set [13] is Trypanosoma cruzi. As to the kind of experiment: Trypanocidal activity against Trypanosoma cruzi IRHOD/CO/2008/SN3 DTU 1 amastigotes infected in African green monkey Vero cells after 72 hrs by Giemsa-staining based microscopic assay. It is filed as functional, organism-based. The note with it: IRHOD/CO/2008/SN3 DTU 1, Vero.
Data set [14] deals with Trypanosoma cruzi. Nature of the data set: Trypanocidal activity against Trypanosoma cruzi MHOM/Pe/2011/Arequipa DTU 5 amastigotes infected in African green monkey Vero cells assessed as reduction in number of amastigotes per infected cells at log -0.41 to 1.7 after 72 hrs by Giemsa-staining based assay. It is filed as functional, organism-based.
Data set [15] has as its system Trypanosoma cruzi. Nature of the data set: Antitrypanosomal activity against Trypanosoma cruzi MHOM/Pe/2011/Arequipa DTU 5 epimastigotes assessed as effect on parasite glycolytic pathway by measuring decrease in D-lactate excretion at IC25 after 72 hrs by 1H NMR method. It is filed as functional, organism-based.
The subject of data set [16] is Trypanosoma cruzi. As to the kind of experiment: Antitrypanosomal activity against Trypanosoma cruzi MHOM/Pe/2011/Arequipa DTU 5 epimastigotes assessed as effect on parasite glycolytic pathway by measuring decrease in ethanol excretion at IC25 after 72 hrs by 1H NMR method. It is filed as functional. Details: scale not given: the % may be the effect or the level left.

Data set [17] concerns Trypanosoma cruzi. As to the kind of experiment: Trypanocidal activity against Trypanosoma cruzi TINF/CH/1956/Tulahuen DTU 6 trypomastigotes derived from infected Balb/c albino mouse after 24 hrs by resazurin dye based assay. It is filed as functional, organism-based. The following applies: TINF/CH/1956/Tulahuen DTU 6, 24 h. (In general: The colour change of resazurin is a common sign of viable cells or microbes.)

Data set [18] is described as follows: Toxicity in Balb/c mouse assessed as death at 20 mg/kg, po once daily for 5 consecutive days starting from day 10 post infection. It is filed as organism-based. The note with it: in vivo.
For data set [19], the system named is Trypanosoma cruzi. As to the kind of experiment: Antitrypanosomal activity against Trypanosoma cruzi MHOM/Pe/2011/Arequipa DTU 5 epimastigotes assessed as effect on parasite glycolytic pathway by measuring decrease in pyruvate excretion at IC25 after 72 hrs by 1H NMR method. It is filed as functional, organism-based.
Data set [20] deals with Trypanosoma cruzi. As to the kind of experiment: Antitrypanosomal activity against Trypanosoma cruzi MHOM/Pe/2011/Arequipa DTU 5 epimastigotes assessed as effect on parasite glycolytic pathway by measuring increase in glycerol excretion at IC25 after 72 hrs by 1H NMR method. It is filed as functional, organism-based.
Data set [21] can be described thus: Toxicity in Balb/c mouse assessed as reduction in body mass at 20 mg/kg, po once daily for 5 consecutive days starting from day 75 post infection relative to control. It is filed as organism-based. The following applies: in vivo. Also noted: scale not given: the % may be the effect or the level left.
In data set [22] the test system is Trypanosoma cruzi. Nature of the data set: Trypanocidal activity against Trypanosoma cruzi MHOM/Pe/2011/Arequipa DTU 5 amastigotes infected in African green monkey Vero cells assessed as reduction in infected cells after 72 hrs by Giemsa-staining based assay. The note with it: MHOM/Pe/2011/Arequipa DTU 5, Vero. It is filed as functional, organism-based.
In another data set the test system is Vero. As to the kind of experiment: Cytotoxicity against African green monkey Vero cells assessed as reduction in cell viability after 48 to 72 hrs by resazurin dye based assay. The following applies: Chlorocebus sabaeus.
Data set [23] in a line: Hepatotoxicity in Balb/c mouse infected with Trypanosoma cruzi MHOM/Pe/2011/Arequipa DTU 5 trypomastigotes assessed as change in ratio of serum ALT to GPT level at 20 mg/kg, po once daily for 5 consecutive days starting from day 75 post infection measured on day 127 post infection (reference value: 64 U/L). It is filed as toxicity, organism-based. The following applies: in vivo.

The nature of data set [24]: Selectivity index, ratio of IC50 for African green monkey Vero cells to IC50 for Trypanosoma cruzi MHOM/Pe/2011/Arequipa DTU 5 amastigotes infected in African green monkey Vero cells. It is filed as toxicity. The following applies: read-out: Ratio IC50.
Data set [25] in a line: Hepatotoxicity in Balb/c mouse infected with Trypanosoma cruzi MHOM/Pe/2011/Arequipa DTU 5 trypomastigotes assessed as change in alkaline phosphatase level at 20 mg/kg, po once daily for 5 consecutive days starting from day 10 post infection measured on day 127 post infection by biochemical analysis (reference value: 161 U/L). It is filed as toxicity, organism-based. The following applies: in vivo.

Data set [26] in a line: Hepatotoxicity in Balb/c mouse infected with Trypanosoma cruzi MHOM/Pe/2011/Arequipa DTU 5 trypomastigotes assessed as increase in ratio of serum AST to GOT level at 20 mg/kg, po once daily for 5 consecutive days starting from day 75 post infection measured on day 127 post infection relative to control. It is filed as toxicity, organism-based. The following applies: in vivo.

Data set [27] in a line: Cardiotoxicity in Balb/c mouse infected with Trypanosoma cruzi MHOM/Pe/2011/Arequipa DTU 5 trypomastigotes assessed as change in ratio of creatine kinase in muscle to brain at 20 mg/kg, po once daily for 5 consecutive days starting from day 10 post infection measured on day 16 post infection by biochemical analysis (reference value: 535 U/L). It is filed as toxicity, organism-based. The note with it: in vivo.

`Cl.Cl.Cl.NCCN(CCN)CCNCc1ccc2c(c1)Cc1ccccc1-2`: the Activity result in [1] was “<= 10%”; in data set [8], “<= 10%”; in the data set on Trypanosoma cruzi [10], 72%; in data set [11], 149 U/L; in the data set on Trypanosoma cruzi [16], 31%; in [18], “Non-Toxic”. Further, the Activity was less than 10% in [21] and 64 U/L in [23]. The outcome in the data set with Trypanosoma cruzi [2] was inactive. Also, the selectivity ratio in [3] stood at 66.3; in data set [7], 117; in data set [24], 365. For the same compound, the half-maximal inhibitory concentration (IC50) in [4] was greater than 100 µM; in [6], 56.9 µM; in the data set on Trypanosoma cruzi [9] it was 4.8 µM; in the data set on Trypanosoma cruzi [13] it was 19.7 µM; in the data set with Trypanosoma cruzi [17], 17.6 µM; in the data set with Trypanosoma cruzi [22] it was 8 µM. In addition, in the data set on Vero, the concentration for half-maximal inhibition (IC50) was found to be 1770 µM. Further, the outcome in the data set with Trypanosoma cruzi [5], with Trypanosoma cruzi [12], in the data set on Trypanosoma cruzi [14], with Trypanosoma cruzi [15], with Trypanosoma cruzi [19] and with Trypanosoma cruzi [20] was Active.

On to `O=C(Cn1ccnc1[N+](=O)[O-])NCc1ccccc1` [BENZNIDAZOLE], for which the Activity in data set [25] was 161 U/L; in [8] it was “<= 10%”; in data set [26], “<= 10%”; in data set [27] it was 535 U/L; in [23], 64 U/L. The result in the data set on Trypanosoma cruzi [10] was Active.

`Cl.Cl.Cl.Cl.Cl.Cl.c1ccc2nc(CNCCN(CCNCc3ccc4ccccc4n3)CCNCc3ccc4ccccc4n3)ccc2c1`: the Activity entry in data set [1] is listed as “<= 10%”; in [25], 161 U/L; in [11], 149 U/L; in the data set on Trypanosoma cruzi [16] it was 38%; in data set [18] it was “Non-Toxic”; in data set [26], “<= 10%”. In addition, the Activity in [21] is recorded as less than 10%; in data set [27] it was 535 U/L. The outcome in the data set with Trypanosoma cruzi [2] was inactive. For the same compound, the selectivity ratio turned out to be 110 in [3], 707 in data set [7] and 692 in data set [24]. In addition, the IC50 is greater than 100 µM in data set [4]; 29 µM in data set [6]; 2.4 µM in the data set with Trypanosoma cruzi [9]; 1.6 µM in the data set with Trypanosoma cruzi [13]; 1.9 µM with Trypanosoma cruzi [17]; 3.6 µM with Trypanosoma cruzi [22]. Moreover, the IC50 in the data set with Vero turned out to be 1560 µM. The outcome in the data set on Trypanosoma cruzi [5], with Trypanosoma cruzi [12], with Trypanosoma cruzi [14], with Trypanosoma cruzi [15], with Trypanosoma cruzi [19] and in the data set on Trypanosoma cruzi [20] was Active.
